From US20110190199A1, “Combination Therapy for Tuberculosis” (priority 2008, published 2011)
Like-named read-outs stand apart in the source and are kept apart here.

Columns and labels:
[1] = test system: Mycobacterium tuberculosis H37Rv; test: Example 8B: eight week dose ranging study (second phase after 4 weeks RHZU25); assay type: in vivo, mice; set-up: Lung CFU / CFU-U only: unit not given here; conditions: for effect of U monotherapy against persisting tubercle bacilli / log reduction with U monotherapy against persisting tubercle bacilli: 4 weeks after initial 4 weeks of RHZU25; for CFU-U only: lung
Description: Eighty of the mice from Group 4 (in Example 8A) that had been receiving 25 mg/kg of the compound of formula I (U) along with rifampin(R), isoniazid(H), and pyrazinamide(Z) were evaluated in the second phase of the study. They were assigned to one of the groups described below in Table 6 and the study was continued for an additional 4 weeks (i.e. 8 week results).
As described above, 5 animals served as the control and no further drugs were given. Five were given the combination of rifampin(R) and isoniazid (H), five given isoniazid (H) or rifampin(R) alone. […] Six of these groups were also dosed with rifampin (R). The rifampin and isoniazid was dosed in the same manner and in the same amount as in Example 8A.
At the conclusion of the eight (8) week experiment, all of the animals were sacrificed and CFU lung counts were obtained.

M. tuberculosis H37Rv = test: Example 9: compound of formula I added to first and second line anti-tuberculosis drugs (survival, lung CFU after 4 weeks); assay type: in vivo, mice; conditions: D0 8.36 ± 0.10
[2] = test system: Mycobacterium tuberculosis; conditions: stated in the pharmacokinetics section (Barbachyn et al.); cited from earlier work
[3] = test system: Mycobacterium tuberculosis H37Rv; test: Example 6: in vivo activity of the combination (lung CFU after 4 and 8 weeks); set-up: species or system mice
[4] = test system: Mycobacterium tuberculosis H37Rv; test: Example 8C: additional dose ranging study (4 and 8 weeks); assay type: in vivo, mice; conditions: lung
Description: The protocol described above in Example 8A and 8B was carried out on an alternative occasion. The only substantive changes were the number of animals per group and the initial incubation period.
Testing continued for an additional 4 weeks with 60 of the mice from Test Group 2 immediately above. The mice either received U alone, at varying doses, or the combination of U and R. The following results were obtained.

[5] = test system: Mycobacterium tuberculosis H37Rv; test: MIC by agar dilution on Middlebrook 7H11 agar; assay type: cell-based; conditions: 672 h, 7H11 agar + 10% OADC, 28 days at 37°C, lowest concentration to inhibit at least 99% of bacterial growth
[6] = test system: Mycobacterium tuberculosis H37Rv; assay type: in vivo, mice; conditions: for log kill (reduction in mean lung CFU count compared to the baseline value): 28 days; for Mean log10 CFU count (± SD) on Day 28: lung, Day 0 7.49 ± 0.11
[7] = Single-dose and steady-state serum pharmacokinetics in the murine model; assay type: in vivo, mice; conditions: mouse, in vivo, po, 100 mg/kg
Description: To determine the single-dose and steady-state pharmacokinetic profiles of the compound of formula (I) and LZD in the murine model, a sub-study was nested in the above dose-ranging study using mice treated with the compound of formula (I) at 100 mg/kg once-daily or LZD at 130 mg/kg once- or twice-daily. Three mice per group were sacrificed at 0.5, 1, 2, 4, 8 and 24 hours after the first dose of treatment (D1) and at the aforementioned time points with the addition of a 9 hour time point (i.e., 1 hour after the second daily dose) on Day 24 (D24) of treatment. Mice were anesthetized with chloroform and exsanguinated by cardiac puncture. Whole blood was collected on ice and then centrifuged to obtain serum. Acetonitrile was added to the samples before storage in gasketed screwcap tubes at −20° C. D24 samples were collected and processed in the same manner and stored at −20° C. before being sent together with D1 samples to Pfizer (Groton, Conn.) for determination of drug concentrations. The supernatant was injected (10 μL injection volume) onto the LC (Shimadzu SCL-10A, Kyoto, Japan)-MS/MS (Sciex API 3000, Applied Biosystems Group, Foster City, Calif.) using a Hypersil C18 column (5 μm, 50×2.1 mm, Thermo Electron Corp, Waltham, Mass.) and a step gradient consisting of a mobile phase of A: water with 0.05% 5 mM ammonium formate and B: acetonitrile/water/5 mM ammonium formate (80:20:0.05%). The ionization was electrospray positive ion mode. Bioanalytical data were captured using Analyst (Version 1.4.1, Applied Biosystems Group, Foster City, Calif.). Pharmacokinetic calculations were based on mean serum concentrations and performed using the non-compartmental approach (linear trapezoidal rule for AUC calculation with the aid of Watson 7.2 Bioanalytical LIMS [Thermo Electron Corp, Waltham, Mass.)). […] Concentrations of 0 were used for kinetic calculations for all results below the lower limit of quantitation (5 ng/mL).

[8] = labelled regimen PLUS compound of formula (I) 100 mg/kg/day, INH 25, RIF 10, PZA 150, MXF 100 mg/kg, Day 0 7.37 ± 0.12
[9] = regimen as labelled, INH 25, RIF 10, PZA 150, MXF 100, compound of formula (I) 100 mg/kg, Day 0 7.37 ± 0.12

With CC(=O)NC[C@H]1CN(c2ccc(N3CCSCC3)c(F)c2)C(=O)O1 [compound of formula (I), (S)—N-[[3-[3-fluoro-4-(4-thiomorpholinyl)phenyl]-2-oxo-5-oxazolidinyl]methyl]acetamide] the “effect of U monotherapy against persisting tubercle bacilli” value ([1]; 12.5 mg/kg) was “growth-inhibitory effect”, the “effect of U monotherapy against persisting tubercle bacilli” value ([1]; 25 mg/kg) was “bacteriostatic effect” and the “log reduction with U monotherapy against persisting tubercle bacilli” value (from here on “log reduction with U monotherapy”) ([1]; 50 mg/kg) was over 0.5 log. The “log reduction with U monotherapy” value ([1]; 100 mg/kg) was over 1 log, the “log reduction with U monotherapy” value ([1]; 160 mg/kg) was about 2 log and the CFU-U only ([1]; 8 weeks: 4 weeks RHZU25 then 4 weeks U 12.5 mg/kg) was 4.99 ± 0.19. It also gave a CFU-U only ([1]; 8 weeks: 4 weeks RHZU25 then 4 weeks U 25 mg/kg) of 4.26 ± 0.24, a CFU-U only ([1]; 8 weeks: 4 weeks RHZU25 then 4 weeks U 50 mg/kg) of 3.56 ± 0.15 and a CFU-U only ([1]; 8 weeks: 4 weeks RHZU25 then 4 weeks U 50 mg/kg thrice weekly (3/7)) of 4.21 ± 0.26. The CFU-U only ([1]; 8 weeks: 4 weeks RHZU25 then 4 weeks U 100 mg/kg) was 2.88 ± 0.34, the CFU-U only ([1]; 8 weeks: 4 weeks RHZU25 then 4 weeks U 160 mg/kg) was 2.42 ± 0.31 and the “Mean lung log10 CFU count (±) S.D. after 4 weeks of treatment with: Regimen + U 25 mg/kg” value (M. tuberculosis H37Rv; labelled drug PLUS U 25 mg/kg) was 7.17 ± 0.23 log10 CFU. The “Mean lung log10 CFU count (±) S.D. after 4 weeks of treatment with: Regimen + U 100 mg/kg” value (M. tuberculosis H37Rv; labelled drug PLUS U 100 mg/kg, lower limit of detection 3.40) was 5.40 ± 0.10 log10 CFU, the “MIC90 against M. tuberculosis” value [2] was 0.25 µg/mL and the “Lung log10 CFU counts (±SD) after treatment with the indicated regimen plus the compound of formula (I) 100 mg/kg/day, Day 28” value [3, 8] was 4.72 ± 0.17 log10 CFU. For the same compound, the “Lung log10 CFU counts (±SD) after treatment with the indicated regimen plus the compound of formula (I) 100 mg/kg/day, Day 56” value [3, 8] was 2.70 ± 0.29 log10 CFU, the “reduction in lung CFU counts from baseline over the first 28 days” value ([3]; monotherapy, compound of formula (I) 100, INH 25, RIF 10 mg/kg) was 2.65 log10 and the “Lung log10 CFU counts (±SD) after treatment with the indicated regimen, Day 28” value [3, 9] was 4.72 log10 CFU. For the same compound, the “Lung log10 CFU counts (±SD) after treatment with the indicated regimen, Day 56” value [3, 9] was 2.70 log10 CFU, the “CFU Count 8 weeks” value ([4]; 4 weeks RHZU100 then 4 weeks with U 6.25 mg/kg (alone or with R)) was 4.93 ± 0.32 and the “CFU Count 8 weeks” value ([4]; 4 weeks RHZU100 then 4 weeks with U 12.5 mg/kg (alone or with R)) was 5.30 ± 0.08. The “CFU Count 8 weeks” value ([4]; 4 weeks RHZU100 then 4 weeks with U 25 mg/kg (alone or with R)) was 5.27 ± 0.20, the “CFU Count 8 weeks” value ([4]; 4 weeks RHZU100 then 4 weeks with U 50 mg/kg (alone or with R)) was 4.59 ± 0.28 and the “CFU Count 8 weeks” value ([4]; 4 weeks RHZU100 then 4 weeks with U 100 mg/kg (alone or with R)) was 3.86 ± 0.53. The “CFU Count 8 weeks” value ([4]; 4 weeks RHZU100 then 4 weeks with U 160 mg/kg (alone or with R)) was 2.90 ± 0.32, the MIC [5] was 0.25 µg/mL and the “in vivo potency relative to LZD” value ([6]; 25 mg/kg as active as LZD 130 mg/kg, AUC about 3-fold lower at 100 mg/kg) was 12 times. For the same compound, the “log kill (reduction in mean lung CFU count compared to the baseline value)” value ([6]; 25 mg/kg) was 0.78 log10, the mean spleen weight ([6]; 25 mg/kg, after 28 days of treatment, pre-treatment 105±11 mg, untreated 237±16 mg) was 113 ± 17 mg and the “log kill (reduction in mean lung CFU count compared to the baseline value)” value ([6]; 50 mg/kg) was 2.21 log10. For the same compound, the “Mean log10 CFU count (± SD) on Day 28” value ([6]; 25 mg/kg once daily, 5 days per week by gavage) was 6.71 ± 0.28 log10 CFU, the “Mean log10 CFU count (± SD) on Day 28” value ([6]; 25 mg/kg twice daily) was 5.51 ± 0.14 log10 CFU and the “Mean log10 CFU count (± SD) on Day 28” value ([6]; 50 mg/kg once daily, 50 mg/kg) was 5.28. The “Mean log10 CFU count (± SD) on Day 28” value ([6]; 50 mg/kg once daily, listed as Compound of Formula (I), 50 mg/kg) was 5.28 ± 0.53 log10 CFU, the “Mean log10 CFU count (± SD) on Day 28” value ([6]; 50 mg/kg twice daily) was 4.89 ± 0.27 log10 CFU and the “Mean log10 CFU count (± SD) on Day 28” value ([6]; 100 mg/kg once daily) was 5.07 ± 0.14 log10 CFU. The AUC0-24 [7] was 8740 ng·h/mL, the Cmax [7] was 4320 ng/mL and the AUC(0-t) ([7]; AUC0-24) was 7330 ng·h/mL. The Cmax ([7]; Cmax) was 6070 ng/mL.
